Assay results: ChEMBL document CHEMBL1201862, “PubChem BioAssay data set” (2004)
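Method: 48-hour compound exposure of cells in 96-well plates, five concentrations, linear interpolation of endpoints. GI50 is the concentration that inhibits growth by half.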 Activity calls are given as the source filed them. Cut-off read from the data, not from the text of the source: active = GI50 up to about 1.1 µM and inactive = higher.

Legend:
Test in all cases: NCI anticancer screen, dose series, 48 h
HCC 2998 = tested on: HCC 2998
786-0 = tested on: 786-0
SK-MEL-5 = tested on: SK-MEL-5
SK-MEL-2 = tested on: SK-MEL-2
NCI-H460 = tested on: NCI-H460
RPMI-8226 = tested on: RPMI-8226
HOP-92 = tested on: HOP-92
KM12 = tested on: KM12
SNB-75 = tested on: SNB-75
MOLT-4 = tested on: MOLT-4
SF-539 = tested on: SF-539
SK-MEL-28 = tested on: SK-MEL-28
SR = tested on: SR
SNB-19 = tested on: SNB-19
HCT-15 = tested on: HCT-15
CAKI-1 = tested on: CAKI-1

SMILES	GI50 (HCC 2998)	GI50 (786-0)	GI50 (SK-MEL-5)	GI50 (SK-MEL-2)	GI50 (NCI-H460)	GI50 (RPMI-8226)	GI50 (HOP-92)	GI50 (KM12)	GI50 (SNB-75)	GI50 (MOLT-4)	GI50 (SF-539)	GI50 (SK-MEL-28)	GI50 (SR)	GI50 (SNB-19)	GI50 (HCT-15) [µM]	GI50 (CAKI-1)
C/C(CC(=O)Nc1ccc(C)c(C)c1)=N\NC(N)=O	> 100 µM (inactive)	> 100 µM (inactive)	> 100 µM (inactive)	> 100 µM (inactive)	> 100 µM (inactive)	> 100 µM (inactive)	> 100 µM (inactive)	> 100 µM (inactive)	> 100 µM (inactive)	> 100 µM (inactive)	> 100 µM (inactive)	> 100 µM (inactive)				
Cc1nc2nnc(C)n2c2c1C(=O)Nc1ccccc1N2	> 100 µM (inactive)	> 100 µM (inactive)		> 100 µM (inactive)	> 100 µM (inactive)	> 100 µM (inactive)	> 100 µM (inactive)	> 100 µM (inactive)	> 100 µM (inactive)	> 100 µM (inactive)	> 100 µM (inactive)	> 100 µM (inactive)	> 100 µM (inactive)	> 100 µM (inactive)		
CCOC(=O)[C@H]1Nc2ccc(OC)cc2C2c3ccccc3CC21 (some centres undefined)	46.8 µM (inactive)	> 100 µM (inactive)	> 100 µM (inactive)	> 100 µM (inactive)	> 100 µM (inactive)	> 100 µM (inactive)		> 100 µM (inactive)	83.9 µM (inactive)	> 100 µM (inactive)	> 100 µM (inactive)	> 100 µM (inactive)	> 100 µM (inactive)	> 100 µM (inactive)	> 100	> 100 µM (inactive)
CS/C(=N/C(=O)c1ccccc1Cl)SCCS/C(=N\C(=O)c1ccccc1Cl)SC	> 100 µM (inactive)	> 100 µM (inactive)	> 100 µM (inactive)	> 100 µM (inactive)	> 100 µM (inactive)	> 100 µM (inactive)	19.6 µM (inactive)	> 100 µM (inactive)	> 100 µM (inactive)	> 100 µM (inactive)	> 100 µM (inactive)	> 100 µM (inactive)		> 100 µM (inactive)	> 100	> 100 µM (inactive)
OCCN(CCO)c1ncnc2c1sc(=S)n2-c1ccccc1	> 100 µM (inactive)	> 100 µM (inactive)	> 100 µM (inactive)	> 100 µM (inactive)	> 100 µM (inactive)	> 100 µM (inactive)	> 100 µM (inactive)	> 100 µM (inactive)	> 100 µM (inactive)	> 100 µM (inactive)	> 100 µM (inactive)	> 100 µM (inactive)	> 100 µM (inactive)	> 100 µM (inactive)	> 100	> 100 µM (inactive)
CCOC(=O)C12CCSC1C1(C#N)C(C#N)=CC2(N=P(c2ccccc2)(c2ccccc2)c2ccccc2)n2c(=O)n(-c3ccccc3)c(=O)n21 (centres undefined)	27.7 µM (inactive)	47.8 µM (inactive)	25.2 µM (inactive)	48.6 µM (inactive)	37.7 µM (inactive)	26.1 µM (inactive)	12.4 µM (inactive)	32.6 µM (inactive)	47 µM (inactive)	30.3 µM (inactive)	73.6 µM (inactive)	27.5 µM (inactive)		39.3 µM (inactive)	34.8	28.6 µM (inactive)
OC1CC1Sc1ccccc1 (centres undefined)	35 µM (inactive)	21 µM (inactive)	31.6 µM (inactive)	38.1 µM (inactive)	65.2 µM (inactive)	30.5 µM (inactive)	29.6 µM (inactive)	34 µM (inactive)	26.7 µM (inactive)	21.1 µM (inactive)	22 µM (inactive)	22.1 µM (inactive)		33.9 µM (inactive)	36.7	73.3 µM (inactive)
Cc1cc2c(c(C(N)=O)c1C)-c1cc(Cl)cc(Cl)c1C2=O	> 100 µM (inactive)	60.5 µM (inactive)		> 100 µM (inactive)	> 100 µM (inactive)	> 100 µM (inactive)	> 100 µM (inactive)	> 100 µM (inactive)	22.6 µM (inactive)	> 100 µM (inactive)	90.2 µM (inactive)	> 100 µM (inactive)		79.4 µM (inactive)	> 100	
[N-]=[N+]=NC12CC3C4CC5CC3C(C1)C(C5)C4C2	> 100 µM (inactive)	> 100 µM (inactive)	> 100 µM (inactive)	> 100 µM (inactive)	> 100 µM (inactive)	> 100 µM (inactive)	> 100 µM (inactive)	> 100 µM (inactive)	> 100 µM (inactive)	> 100 µM (inactive)	> 100 µM (inactive)	> 100 µM (inactive)	> 100 µM (inactive)	> 100 µM (inactive)		> 100 µM (inactive)
CCN(CCCl)CCCCCNc1c2ccccc2nc2ccc(OC)cc12	1.04 µM (active)	0.345 µM (active)	1.1 µM (active)	1.09 µM (active)	0.07 µM (active)	0.115 µM (active)	0.436 µM (active)	0.454 µM (active)	0.942 µM (active)	0.0155 µM (active)	1.04 µM (active)	2.72 µM (inactive)		1.16 µM (inactive)	1.3	2.84 µM (inactive)
